In US11642348B2, “Substituted benzene compounds” (Epizyme, Inc., priority 2012, dated 2023):
Read-outs that look alike come from different tables or passages of the source.

Tests used:
WSU-DLCL2 cells = assay: Cell proliferation analysis (WSU-DLCL2, Cell Titer Glo); format: cell-based; conditions: Homo sapiens, 6 days
Text: Cell Proliferation Analysis
WSU-DLCL2 suspension cells were purchased from DSMZ (German Collection of Microorganisms and Cell Cultures, Braunschweig, Germany). RPMI/Glutamax Medium, Penicillin-Streptomycin, Heat Inactivated Fetal Bovine Serum were purchased from Life Technologies, Grand Island, N.Y., USA. V-bottom polypropylene 384-well plates were purchased from Greiner Bio-One, Monroe, N.C., USA. Cell culture 384-well white opaque plates were purchased from Perkin Elmer, Waltham, Mass., USA. Cell-Titer Glo® was purchased from Promega Corporation, Madison, Wis., USA. SpectraMax M5 plate reader was purchased from Molecular Devices LLC, Sunnyvale, Calif., USA.
A compound source plate was prepared by performing triplicate nine-point 3-fold serial dilutions in DMSO, beginning at 10 mM (final top concentration of compound in the assay was 20 μM and the DMSO was 0.2%). A 100 nL aliquot from the compound stock plate was added to its respective well in the cell plate. […] After addition of compounds, assay plates were incubated for 6 days at 37° C., 5% CO2, relative humidity >90% for 6 days. Cell viability was measured by quantization of ATP present in the cell cultures, adding 35 μl of Cell Titer Glo® reagent to the cell plates. Luminescence was read in the SpectraMax M5. The concentration inhibiting cell viability by 50% was determined using a 4-parametric fit of the normalized dose response curves.

[1] = test system: H3K27me3 in WSU-DLCL2 cells; assay: WSU-DLCL2 methylation assay (H3K27me3 ELISA); format: cell-based; conditions: Homo sapiens, 96 hours
Text: WSU-DLCL2 suspension cells were purchased from DSMZ (German Collection of Microorganisms and Cell Cultures, Braunschweig, Germany). RPMI/Glutamax Medium, Penicillin-Streptomycin, Heat Inactivated Fetal Bovine Serum, and D-PBS were purchased from Life Technologies, Grand Island, N.Y., USA. Extraction Buffer and Neutralization Buffer (5×) were purchased from Active Motif, Carlsbad, Calif., USA. Rabbit anti-Histone H3 antibody was purchased from Abcam, Cambridge, Mass., USA. Rabbit anti-H3K27me3 and HRP-conjugated anti-rabbit-IgG were purchased from Cell Signaling Technology, Danvers, Mass., USA. TMB “Super Sensitive” substrate was sourced from BioFX Laboratories, Owings Mills, Md., USA. IgG-free Bovine Serum Albumin was purchased from Jackson ImmunoResearch, West Grove, Pa., USA. PBS with Tween (10×PBST) was purchased from KPL, Gaithersburg, Md., USA. Sulfuric Acid was purchased from Ricca Chemical, Arlington, Tex., USA. Immulon ELISA plates were purchased from Thermo, Rochester, N.Y., USA. V-bottom cell culture plates were purchased from Corning Inc., Corning, N.Y., USA. V-bottom polypropylene plates were purchased from Greiner Bio-One, Monroe, N.C., USA.
WSU-DLCL2 cells were seeded in assay medium at a concentration of 50,000 cells per mL to a 96-well V-bottom cell culture plate with 200 μL per well. […] Plates were incubated on a titer-plate shaker at 37° C., 5% CO2 for 96 hours. After four days of incubation, plates were spun at 241×g for five minutes and medium was aspirated gently from each well of cell plate without disturbing cell pellet. Pellet was resuspended in 200 μL DPBS and plates were spun again at 241×g for five minutes. The supernatant was aspirated and cold (4° C.) Extraction buffer (100 μL) was added per well. Plates were incubated at 4° C. on orbital shaker for two hours. […] Supernatant (80 μL per well) was transferred to its respective well in 96 well V-bottom polypropylene plate. Neutralization Buffer 5× (20 μL per well) was added to V-bottom polypropylene plate containing supernatant. V-bottom polypropylene plates containing crude histone preparation (CHP) were incubated on orbital shaker×five minutes. Crude Histone Preparations were added (2 μL per well) to each respective well into duplicate 96 well ELISA plates containing 100 μL Coating Buffer (1×PBS+BSA 0.05% w/v). Plates were sealed and incubated overnight at 4° C. The following day, plates were washed three times with 300 μL per well 1×PBST. […] For H3K27me3 detection, 100 μL of HRP conjugated anti-rabbit IgG antibody diluted to 1:4000 in ELISA diluent was added per well. Plates were incubated at room temperature for 90 minutes. […] TMB substrate 100 μL was added per well. Histone H3 plates were incubated for five minutes at room temperature. H3K27me3 plates were incubated for 10 minutes at room temperature. The reaction was stopped with sulfuric acid 1N (100 μL per well). Absorbance for each plate was read at 450 nm.
Each plate included eight control wells of DMSO only treatment (Minimum Inhibition) as well as eight control wells for maximum inhibition (Background wells).
The average of the ratio values for each control type was calculated and used to determine the percent inhibition for each test well in the plate. […] Percent inhibition was determined and IC50 curves were generated using duplicate wells per concentration of compound.

[2] = biological target: wild-type EZH2 (PRC2 complex) (Homo sapiens (Human), UniProt Q15910); assay: PRC2 enzyme assay on peptide substrates (wild-type EZH2)
[3] = WSUDLCL2, Table 3B, read-out: WSU proliferation IC50
[4] = WSUDLCL2, Table 3B, read-out: ELISA H3K27me3 IC50
[5] = read-out: WT EZH2 IC50, Table 3B, wild-type PRC2 enzyme, peptide substrate

wild-type EZH2 (PRC2 complex), sequence (Q15910 other isoform, or with tags, fused parts or gaps): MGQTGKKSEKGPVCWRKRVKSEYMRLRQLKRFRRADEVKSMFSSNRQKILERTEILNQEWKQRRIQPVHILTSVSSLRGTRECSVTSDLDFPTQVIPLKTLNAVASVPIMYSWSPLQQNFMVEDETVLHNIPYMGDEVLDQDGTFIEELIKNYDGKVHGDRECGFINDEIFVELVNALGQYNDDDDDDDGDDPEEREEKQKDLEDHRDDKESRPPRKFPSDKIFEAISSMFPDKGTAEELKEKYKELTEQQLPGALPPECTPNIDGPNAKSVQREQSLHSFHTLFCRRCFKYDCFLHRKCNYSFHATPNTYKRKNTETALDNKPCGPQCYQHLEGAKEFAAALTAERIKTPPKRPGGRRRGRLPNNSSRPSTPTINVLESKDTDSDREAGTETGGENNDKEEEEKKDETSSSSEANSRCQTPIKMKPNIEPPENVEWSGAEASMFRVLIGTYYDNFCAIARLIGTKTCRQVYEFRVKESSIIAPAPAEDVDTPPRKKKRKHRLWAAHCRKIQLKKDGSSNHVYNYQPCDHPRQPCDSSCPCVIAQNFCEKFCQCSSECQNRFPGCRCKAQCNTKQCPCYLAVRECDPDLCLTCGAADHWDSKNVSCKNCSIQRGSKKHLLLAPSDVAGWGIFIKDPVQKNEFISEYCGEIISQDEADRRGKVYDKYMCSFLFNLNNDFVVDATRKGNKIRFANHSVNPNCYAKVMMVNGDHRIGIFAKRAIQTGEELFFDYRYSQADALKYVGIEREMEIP
wild-type EZH2 (PRC2 complex), sequence (O75530 whole entry partner): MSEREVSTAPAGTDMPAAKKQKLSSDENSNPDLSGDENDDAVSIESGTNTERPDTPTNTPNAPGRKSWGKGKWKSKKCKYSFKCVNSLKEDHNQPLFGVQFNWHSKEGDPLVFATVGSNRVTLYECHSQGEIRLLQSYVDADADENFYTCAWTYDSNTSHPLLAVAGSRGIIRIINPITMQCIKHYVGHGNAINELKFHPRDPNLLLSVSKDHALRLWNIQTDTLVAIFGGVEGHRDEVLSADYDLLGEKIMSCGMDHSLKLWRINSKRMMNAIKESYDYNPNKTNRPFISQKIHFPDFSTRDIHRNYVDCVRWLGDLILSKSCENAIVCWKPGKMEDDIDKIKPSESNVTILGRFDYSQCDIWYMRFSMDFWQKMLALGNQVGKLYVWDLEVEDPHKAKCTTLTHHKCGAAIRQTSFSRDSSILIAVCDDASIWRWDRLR
wild-type EZH2 (PRC2 complex), sequence (Q15022 whole entry partner): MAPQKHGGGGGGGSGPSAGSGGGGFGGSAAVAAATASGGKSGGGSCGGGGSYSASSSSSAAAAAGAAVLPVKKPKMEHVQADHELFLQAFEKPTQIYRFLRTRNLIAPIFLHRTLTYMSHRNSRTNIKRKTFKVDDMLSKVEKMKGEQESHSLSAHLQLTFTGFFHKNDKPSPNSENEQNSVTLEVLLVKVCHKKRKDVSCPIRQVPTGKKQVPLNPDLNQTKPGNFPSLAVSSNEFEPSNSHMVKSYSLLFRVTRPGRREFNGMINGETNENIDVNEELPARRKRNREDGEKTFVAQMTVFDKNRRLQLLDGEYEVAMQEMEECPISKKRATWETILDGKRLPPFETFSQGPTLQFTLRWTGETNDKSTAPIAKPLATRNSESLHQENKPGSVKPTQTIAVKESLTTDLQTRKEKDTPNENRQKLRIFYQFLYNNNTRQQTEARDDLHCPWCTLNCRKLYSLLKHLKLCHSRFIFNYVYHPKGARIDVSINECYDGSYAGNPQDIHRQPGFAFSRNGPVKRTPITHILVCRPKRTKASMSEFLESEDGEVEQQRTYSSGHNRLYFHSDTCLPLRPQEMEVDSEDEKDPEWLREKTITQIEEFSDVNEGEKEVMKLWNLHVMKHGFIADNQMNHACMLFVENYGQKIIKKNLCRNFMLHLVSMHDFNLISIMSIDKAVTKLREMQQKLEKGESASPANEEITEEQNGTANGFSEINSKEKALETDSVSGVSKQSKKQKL
wild-type EZH2 (PRC2 complex), sequence (Q09028 whole entry partner): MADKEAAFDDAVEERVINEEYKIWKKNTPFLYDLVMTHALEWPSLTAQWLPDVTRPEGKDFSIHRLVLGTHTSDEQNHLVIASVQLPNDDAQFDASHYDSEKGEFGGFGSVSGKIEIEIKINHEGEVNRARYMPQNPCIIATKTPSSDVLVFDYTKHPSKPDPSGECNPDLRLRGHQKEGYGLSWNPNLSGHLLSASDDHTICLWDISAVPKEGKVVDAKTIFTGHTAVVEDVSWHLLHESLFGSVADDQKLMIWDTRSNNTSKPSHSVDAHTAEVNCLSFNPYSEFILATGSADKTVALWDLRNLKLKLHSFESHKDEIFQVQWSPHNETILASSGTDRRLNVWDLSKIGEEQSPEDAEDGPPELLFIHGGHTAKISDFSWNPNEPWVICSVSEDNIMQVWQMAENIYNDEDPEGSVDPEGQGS

| SMILES | IC50 (WSU-DLCL2 cells; [3]) | IC50 [1, 4] | IC50 [2, 5] | IC50 (WSU-DLCL2 cells; WSUDLCL2, Table 3A, read-out: WSU Prolif. IC50) | IC50 ([1]; WSUDLCL2, Table 3A, read-out: H3K27Me3 ELISA IC50) | IC50 [2] |
| --- | --- | --- | --- | --- | --- | --- |
| CCN(c1cc(-c2ccc(CN3CCCN(C)CC3)nc2)cc(C(=O)NCc2c(C)cc(C)[nH]c2=O)c1C)[C@H]1CC[C@H](N(C)C)CC1 [Compound 146] | 217 nM | 161 nM | < 10 nM | – | – | – |
| CCN(c1cc(C#CCN2CCC[C@H](O)C2)cc(C(=O)NCc2c(C)cc(C)[nH]c2=O)c1C)[C@H]1CC[C@H](N(C)C)CC1 [Compound 108] | 438 nM | 42 nM | < 10 nM | – | – | – |
| CCN(c1cc(-c2ccc(CN3CCN(C)CC3)nc2)cc(C(=O)NCc2c(C)cc(C)[nH]c2=O)c1C)C1C[C@@H](C)N[C@H](C)C1 (stereo partly drawn) [Compound 122] | 7560 nM | > 25000 nM | < 10 nM | – | – | – |
| CCN(c1cc(C2CCOCC2)cc(C(=O)NCc2c(C)cc(C)[nH]c2=O)c1C)[C@H]1CC[C@H](N(C)CCOC)CC1 [Compound 25] | – | – | – | 2220 nM | 650 nM | 8.9 nM |
| CCN(c1cc(C#CCN2CCCC2)cc(C(=O)NCc2c(C)cc(C)[nH]c2=O)c1C)C1CCOCC1 [Compound 107] | 26.2 nM | 28 nM | 11 nM | – | – | – |
| CCN(c1cc(-c2cnc(OC3CN(C)C3)cn2)cc(C(=O)NCc2c(C)cc(C)[nH]c2=O)c1C)C1CCOCC1 [Compound 131] | 194 nM | 306 nM | < 10 nM | – | – | – |
